Patent US8492515B2 (priority 2008, dated 2013)
Bridge positions count the residues as written; N and C are the ends. Square brackets hold non-standard residues; d marks the D form. Ends that are not written are not given here. I, II: the chains in the order shown. Ac6c = NC1(C(=O)O)CCCCC1; Dab = NCC[C@H](N)C(=O)O

What was measured:
in vitro [1] = type: in vitro ADME; conditions: mouse, serum
Description: The metabolic stability of peptide A3-APO in full serum in vitro was examined in peptide degredation studies in blood derived media. A3-APO was added to undiluted mouse serum preparation and was incubated in the full serum for 30 minutes. The serum proteins were precipitated and the serum was submitted for mass spectroscopic analysis.

in vitro [2] = type: in vitro ADME, mouse
Description: The stability of peptide A3-APO was analyzed in commercially available pooled mouse serum diluted to 25% with distilled water as follows. It has been shown that dilution of serum linearly reduces the degradation rate of peptides without changing any other proteolytic parameters (Powell et al., 1992. J. Pharm. Sci. 81: 731-735). […] Specifically, ninety μL of pooled sterile mouse serum (Equitech-Bio, Kerrville, Tex.) was added to 10 μL of peptide A3-APO dissolved in distilled water at 1.28 mg/mL concentration. After incubation periods of 0, 15, 30, 60 or 90, 120 and 240 min at 37° C., 20 μL 15% trichloracetic acid (TCA) was added, the mixture stored at 4° C. for 20 minutes, and centrifuged at 13,000 rpm. The supernatant was submitted to determination of remaining amount of unmodified A3-APO peptide by MS and RP-HPLC.

K. pneumoniae HK 127 = tested on: K. pneumoniae HK 127
Source text: (§1) To investigate the activity of the A3-APO metabolites, Chex1-Arg20 single chain unit and an Arg7-Arg20 common cleavage fragment were synthesized and studied for their ability to kill Enterobacteriaceae strains in undiluted Muller-Hinton broth, a true measure of potential clinical viability (Otvos et al., 2005. J. Med. Chem. 48: 5349-5359). The peptides of the invention were made on a CEM Liberty automated synthesizer with standard Fmoc-chemistry. The peptides were detached from the resin with the carboxyl terminus of the C-terminal Arg residue being in the form of an amino amide, —C(O)—NH2 (“Chex1-Arg20-NH2” and “Arg7-Arg20-NH2”), while still in the microwave chamber, and were purified by RP-HPLC. […] The biological studies carried out on chemically synthesized peptides in this example and succeeding examples were carried out on the C-terminal modified versions of the peptides wherein the C-terminal carboxylic acid function was in the form of an amide, —C(O)—NH2. Antibacterial growth inhibition assays were performed using sterile 96-well polypropylene plates (Nunc F96 microtiter plates) in a final volume of 100 μL as described previously (Cudic et al., 2002. Peptides 23: 271-283). The cell concentrations were estimated by measuring the ultraviolet absorbance at 600 nm and applying the formula cfu/mL=A600(3.8×10^8), where cfu is the number of colony-forming units. Briefly, 50 μL of a suspension of midlogarithmic phase bacterial cultures diluted to 5×10^5 cfu/mL in Muller-Hinton broth (MHB) was added to 50 μL of serially diluted peptides also dissolved in MHB. The final peptide concentration was 128 μg/mL. Cultures were then incubated at 37° C., 5% CO2 for 16-20 h without shaking, and growth inhibition was measured by recording the absorbance at 600 nm using a microplate reader. […] The minimal inhibitory concentration indicates the lowest peptide dose where no visible bacterial growth is detected after 16 hours incubation in full strength Muller-Hinton broth at 37° C. The peptide Chex-pyrr-Dap dimer was also included in the study. […] (Cudic et al., 2002. Peptides 23: 271-283).
(§2) Following the protocol of Example 2, minimal inhibitory concentrations of the Chex1-Arg20 peptide against selected bacteria was determined. […] A3-APO was included for comparison.

P. aeruginosa 10 = tested on: P. aeruginosa 10
Source text: as §1, §2

P. aeruginosa ATCC 39329 = tested on: P. aeruginosa ATCC 39329
Source text: as §1, §2

K. pneumoniae K6 = tested on: K. pneumoniae K6
Source text: as §1, §2

K. pneumoniae HK 186 = tested on: K. pneumoniae HK 186
Source text: as §1, §2

[3] = tested on: A. baumannii ATCC BBA-1605
Source text: as §1, §2

K. pneumoniae 012-3132 = tested on: K. pneumoniae 012-3132
Source text: as §1, §2

E. coli HK179 [4] = tested on: E. coli HK179
Source text: as §1, §2

S. typhimurium G10215 [5] = tested on: S. typhimurium G10215
Source text: as §1, §2

E. coli SOTE40 = tested on: E. coli SOTE40
Source text: as §1, §2

E. coli SEQ102 [6] = tested on: E. coli SEQ102
Source text: as §1, §2

[7] = tested on: S. typhimurium ATCC 14028
Source text: as §1, §2

E. coli 5770 = tested on: E. coli 5770
Source text: as §1, §2

K. pneumoniae HK 123 = tested on: K. pneumoniae HK 123
Source text: as §1, §2

S. typhimurium S5 = tested on: S. typhimurium S5
Source text: as §1, §2

E. coli HK131 = tested on: E. coli HK131
Source text: as §1, §2

E. coli 045-849 = tested on: E. coli 045-849
Source text: as §1, §2

[8] = tested on: S. saprophyticus ATCC 15305
Source text: as §1, §2

K. pneumoniae HK123 = conditions: HK123, 16 h
Source text: as §1

E. coli HK179 [9] = conditions: HK179, 16 h
Source text: as §1

S. typhimurium G10215 [10] = conditions: G10215, 16 h
Source text: as §1

E. coli SEQ102 [11] = conditions: SEQ102, 16 h
Source text: as §1

I: [Ac6c]RPDKPRPYLPRPRPPRPVR[Dab] / II: [Ac6c]RPDKPRPYLPRPRPPRPVR (amide I:21-II:C (inferred)) [Peptide A3-APO, reference compound]
metabolised at 0.5 h (in vitro [1]): ~35% | half-life at 0.128 mg/mL (in vitro [2]; 25% pooled mouse serum, 37° C.): ~3.83 h | original peptide amount remaining intact within the first hour (in vitro [2]; serum): almost half | MIC, K. pneumoniae HK 127 (K. pneumoniae HK 127): 8 µg/mL | MIC, P. aeruginosa 10 (P. aeruginosa 10): 8 µg/mL | MIC, P. aeruginosa ATCC 39329 (P. aeruginosa ATCC 39329): 8 µg/mL | MIC, K. pneumoniae K6 (K. pneumoniae K6): 4 µg/mL | MIC, K. pneumoniae HK 186 (K. pneumoniae HK 186): 8 µg/mL | MIC, A. baumannii ATCC BBA-1605 [3]: 16 µg/mL | MIC, K. pneumoniae 012-3132 (K. pneumoniae 012-3132): 2 µg/mL | MIC, E. coli HK179 (E. coli HK179 [4]): 2 µg/mL | MIC, S. typhimurium G10215 (S. typhimurium G10215 [5]): 4 µg/mL | MIC, E. coli SOTE40 (E. coli SOTE40): 8 µg/mL | MIC, E. coli SEQ102 (E. coli SEQ102 [6]): 2 µg/mL | MIC, S. typhimurium ATCC 14028 [7]: 8 µg/mL | MIC, E. coli 5770 (E. coli 5770): 2 µg/mL | MIC, K. pneumoniae HK 123 (K. pneumoniae HK 123): 4 µg/mL | MIC, S. typhimurium S5 (S. typhimurium S5): 8 µg/mL | MIC, E. coli HK131 (E. coli HK131): 4 µg/mL | MIC, E. coli 045-849 (E. coli 045-849): 4 µg/mL | MIC, S. saprophyticus ATCC 15305 [8]: 2 µg/mL | MIC against K. pneumoniae HK123 (K. pneumoniae HK123): 16 µg/mL | MIC against E. coli HK179 (E. coli HK179 [9]): 8 µg/mL | MIC against S. typhimurium G10215 (S. typhimurium G10215 [10]): 16 µg/mL | MIC against E. coli SEQ102 (E. coli SEQ102 [11]): 16 µg/mL
